Source: patent publication US20210122730A1, “GLUCOCORTICOID RECEPTOR MODULATORS” (ORIC Pharmaceuticals, Inc., priority 2017, published 2021)

Target: T1, GR (Homo sapiens, UniProt P04150)
T1 construct: expressed in transfected cells; host or cells: CHO-K1
T1 sequence (P04150 1-777): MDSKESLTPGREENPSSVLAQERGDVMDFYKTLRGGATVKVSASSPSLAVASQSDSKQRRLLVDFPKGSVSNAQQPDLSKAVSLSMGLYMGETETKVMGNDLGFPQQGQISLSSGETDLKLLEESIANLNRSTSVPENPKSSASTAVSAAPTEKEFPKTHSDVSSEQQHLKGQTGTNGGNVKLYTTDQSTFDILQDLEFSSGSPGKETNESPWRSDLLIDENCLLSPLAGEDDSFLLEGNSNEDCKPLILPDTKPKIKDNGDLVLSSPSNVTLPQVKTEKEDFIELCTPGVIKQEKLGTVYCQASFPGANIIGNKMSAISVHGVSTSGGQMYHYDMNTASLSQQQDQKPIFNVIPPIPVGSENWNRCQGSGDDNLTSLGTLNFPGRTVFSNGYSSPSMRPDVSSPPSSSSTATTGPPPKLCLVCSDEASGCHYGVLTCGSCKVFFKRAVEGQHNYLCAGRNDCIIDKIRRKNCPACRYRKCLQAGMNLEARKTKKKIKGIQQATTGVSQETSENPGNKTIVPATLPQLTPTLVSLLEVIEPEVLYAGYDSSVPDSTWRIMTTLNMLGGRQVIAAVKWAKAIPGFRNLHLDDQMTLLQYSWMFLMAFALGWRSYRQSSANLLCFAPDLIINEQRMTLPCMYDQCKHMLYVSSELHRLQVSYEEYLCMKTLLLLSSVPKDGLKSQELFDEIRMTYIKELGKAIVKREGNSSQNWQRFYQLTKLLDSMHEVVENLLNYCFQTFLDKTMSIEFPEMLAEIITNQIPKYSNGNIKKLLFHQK
Experiment: In Vitro GR Luciferase Reporter Assay (antagonist mode, CHO-K1-GR-MMTV-Luc reporter cells)
Format: cell-based
Details: antagonist mode, 10 nM Dexamethasone
How it was run: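 CHO-K1-GR-MMTV-Luc cells in phenol red-free DMEM with 10% CSS, stimulated with 10 nM dexamethasone (final) and treated with 8-point 1:5 compound dilutions for about 18-24 h at 37° C. Luciferase measured by OneGlo luminescence; IC50 derived for inhibition of GR activity.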

SMILES | IC50 [nM]
COCCN([C@H]1CCC2=Cc3c(cnn3-c3ccc(F)cc3)C[C@]2(C(=O)c2ncc(C(F)(F)F)s2)C1)S(=O)(=O)c1ncn(C)n1 [Example 398, N-((4aS,6S)-1-(4-fluorophenyl)-4a-(5-(trifluoromethyl)thiazole-2-carbonyl)-4,4a,5,6,7,8-hexahydro-1H-benzo[f]indazol-6-yl)-N-(2-methoxyethyl)-1-methyl-1H-1,2,4-triazole-3-sulfonamide] | ≤ 100
Cn1ccc(S(=O)(=O)N(C2CC2)[C@H]2CCC3=Cc4c(cnn4-c4ccc(F)nc4)C[C@]3(C(=O)c3ncc(C(F)(F)F)s3)C2)n1 [Example 399, N-cyclopropyl-N-((4aS,6S)-1-(6-fluoropyridin-3-yl)-4a-(5-(trifluoromethyl)thiazole-2-carbonyl)-4,4a,5,6,7,8-hexahydro-1H-benzo[f]indazol-6-yl)-1-methyl-1H-pyrazole-3-sulfonamide] | ≤ 100
Cn1ccc(S(=O)(=O)N(CC(=O)OC(C)(C)C)[C@H]2CCC3=Cc4c(cnn4-c4ccc(F)cc4)C[C@]3(C(=O)c3cc(C(F)(F)F)ccn3)C2)n1 [Example 400, tert-butyl N-((4aS,6S)-1-(4-fluorophenyl)-4a-(4-(trifluoromethyl)picolinoyl)-4,4a,5,6,7,8-hexahydro-1H-benzo[f]indazol-6-yl)-N-((1-methyl-1H-pyrazol-3-yl)sulfonyl)glycinate] | ≤ 100
Cn1ccc(S(=O)(=O)N(CC(=O)O)[C@H]2CCC3=Cc4c(cnn4-c4ccc(F)cc4)C[C@]3(C(=O)c3cc(C(F)(F)F)ccn3)C2)n1 [Example 401, N-((4aS,6S)-1-(4-fluorophenyl)-4a-(4-(trifluoromethyl)picolinoyl)-4,4a,5,6,7,8-hexahydro-1H-benzo[f]indazol-6-yl)-N-((1-methyl-1H-pyrazol-3-yl)sulfonyl)glycine] | 100 to 1000
Cn1ccc(S(=O)(=O)N(C2CC2)[C@H]2CCC3=Cc4c(cnn4-c4ccc(F)nc4)C[C@]3(C(=O)c3cc(C(F)(F)F)ccn3)C2)n1 [Example 402, N-cyclopropyl-N-((4aS,6S)-1-(6-fluoropyridin-3-yl)-4a-(4-(trifluoromethyl)picolinoyl)-4,4a,5,6,7,8-hexahydro-1H-benzo[f]indazol-6-yl)-1-methyl-1H-pyrazole-3-sulfonamide] | ≤ 100
Cn1ccc(S(=O)(=O)N(CCF)[C@H]2CCC3=Cc4c(cnn4-c4ccc(F)cc4)C[C@]3(C(=O)c3cc(Cl)ccn3)C2)n1 [Example 403, N-((4aS,6S)-4a-(4-chloropicolinoyl)-1-(4-fluorophenyl)-4,4a,5,6,7,8-hexahydro-1H-benzo[f]indazol-6-yl)-N-(2-fluoroethyl)-1-methyl-1H-pyrazole-3-sulfonamide] | ≤ 100
COCCOCCN([C@H]1CCC2=Cc3c(cnn3-c3ccc(F)cc3)C[C@]2(C(=O)c2cc(C(F)(F)F)ccn2)C1)S(=O)(=O)c1ccc(F)cc1 [Example 404, 4-fluoro-N-((4aS,6S)-1-(4-fluorophenyl)-4a-(4-(trifluoromethyl)picolinoyl)-4,4a,5,6,7,8-hexahydro-1H-benzo[f]indazol-6-yl)-N-(2-(2-methoxyethoxy)ethyl)benzene-sulfonamide] | ≤ 100
O=C(c1ncc(C(F)(F)F)s1)[C@]12Cc3cnn(-c4ccc(F)cc4)c3C=C1CC[C@H](N(CC(F)F)S(=O)(=O)c1ccc(F)cc1)C2 [Example 405, N-(2,2-difluoroethyl)-4-fluoro-N-((4aS,6S)-1-(4-fluorophenyl)-4a-(5-(trifluoromethyl)thiazole-2-carbonyl)-4,4a,5,6,7,8-hexahydro-1H-benzo[f]indazol-6-yl)benzenesulfonamide] | ≤ 100
Cn1cc(S(=O)(=O)N(C2CC(F)(F)C2)[C@H]2CCC3=Cc4c(cnn4-c4ccc(F)cc4)C[C@]3(C(=O)c3ncc(C(F)(F)F)s3)C2)cn1 [Example 406, N-(3,3-difluorocyclobutyl)-N-((4aS,6S)-1-(4-fluorophenyl)-4a-(5-(trifluoromethyl)thiazole-2-carbonyl)-4,4a,5,6,7,8-hexahydro-1H-benzo[f]indazol-6-yl)-1-methyl-1H-pyrazole-4-sulfonamide] | ≤ 100
O=C(c1cc(C(F)(F)F)ccn1)[C@]12Cc3cnn(-c4ccc(F)cc4)c3C=C1CC[C@H](N(CC(F)F)S(=O)(=O)c1ccc(F)cc1)C2 [Example 407, N-(2,2-difluoroethyl)-4-fluoro-N-((4aS,6S)-1-(4-fluorophenyl)-4a-(4-(trifluoromethyl)picolinoyl)-4,4a,5,6,7,8-hexahydro-1H-benzo[f]indazol-6-yl)benzenesulfonamide] | ≤ 100
Cn1ccc(S(=O)(=O)N([C@H]2CCC3=Cc4c(cnn4-c4ccc(F)cc4)C[C@]3(C(=O)c3ncc(C(F)(F)F)s3)C2)[C@H]2C[C@@H](C#N)C2)n1 [Example 408, N-((1s,3R)-3-cyanocyclobutyl)-N-((4aS,6S)-1-(4-fluorophenyl)-4a-(5-(trifluoromethyl)thiazole-2-carbonyl)-4,4a,5,6,7,8-hexahydro-1H-benzo[f]indazol-6-yl)-1-methyl-1H-pyrazole-3-sulfonamide] | ≤ 100
Cn1cnc(S(=O)(=O)N(CC2CC2)[C@H]2CCC3=Cc4c(cnn4-c4ccc(F)cc4)C[C@]3(C(=O)c3cc(F)ccn3)C2)n1 [Example 409, N-(cyclopropylmethyl)-N-((4aS,6S)-1-(4-fluorophenyl)-4a-(4-fluoropicolinoyl)-4,4a,5,6,7,8-hexahydro-1H-benzo[f]indazol-6-yl)-1-methyl-1H-1,2,4-triazole-3-sulfonamide] | ≤ 100

More lines, now with the values ahead:

IC50 [nM] | SMILES
≤ 100 | O=C(c1cc(Cl)ccn1)[C@]12Cc3cnn(-c4ccc(F)cc4)c3C=C1CC[C@H](N(CCF)S(=O)(=O)c1ccc(F)cc1)C2 [Example 390, N-((4aS,6S)-4a-(4-chloropicolinoyl)-1-(4-fluorophenyl)-4,4a,5,6,7,8-hexahydro-1H-benzo[f]indazol-6-yl)-4-fluoro-N-(2-fluoroethyl)benzenesulfonamide]
≤ 100 | COCCOCCN([C@H]1CCC2=Cc3c(cnn3-c3ccc(F)cc3)C[C@]2(C(=O)c2ncc(C(F)(F)F)s2)C1)S(=O)(=O)c1ccc(F)cc1 [Example 391, 4-fluoro-N-((4aS,6S)-1-(4-fluorophenyl)-4a-(5-(trifluoromethyl)thiazole-2-carbonyl)-4,4a,5,6,7,8-hexahydro-1H-benzo[f]indazol-6-yl)-N-(2-(2-methoxyethoxy)ethyl)benzene-sulfonamide]
≤ 100 | Cn1cnc(S(=O)(=O)N(CCF)[C@H]2CCC3=Cc4c(cnn4-c4ccc(F)cc4)C[C@]3(C(=O)c3cc(F)ccn3)C2)n1 [Example 392, N-(2-fluoroethyl)-N-((4aS,6S)-1-(4-fluorophenyl)-4a-(4-fluoropicolinoyl)-4,4a,5,6,7,8-hexahydro-1H-benzo[f]indazol-6-yl)-1-methyl-1H-1,2,4-triazole-3-sulfonamide]
≤ 100 | Cn1cnc(S(=O)(=O)N(CCF)[C@H]2CCC3=Cc4c(cnn4-c4ccc(F)cc4)C[C@]3(C(=O)c3cc(Cl)ccn3)C2)n1 [Example 393, N-((4aS,6S)-4a-(4-chloropicolinoyl)-1-(4-fluorophenyl)-4,4a,5,6,7,8-hexahydro-1H-benzo[f]indazol-6-yl)-N-(2-fluoroethyl)-1-methyl-1H-1,2,4-triazole-3-sulfonamide]
≤ 100 | Cn1cc(S(=O)(=O)N(CCF)[C@H]2CCC3=Cc4c(cnn4-c4ccc(F)cc4)C[C@]3(C(=O)c3ncc(C(F)(F)F)s3)C2)nn1 [Example 394, N-(2-fluoroethyl)-N-((4aS,6S)-1-(4-fluorophenyl)-4a-(5-(trifluoromethyl)thiazole-2-carbonyl)-4,4a,5,6,7,8-hexahydro-1H-benzo[f]indazol-6-yl)-1-methyl-1H-1,2,3-triazole-4-sulfonamide]
≤ 100 | Cn1cc(S(=O)(=O)N(CCF)[C@H]2CCC3=Cc4c(cnn4-c4ccc(F)cc4)C[C@]3(C(=O)c3cc(C(F)(F)F)ccn3)C2)nn1 [Example 395, N-(2-fluoroethyl)-N-((4aS,6S)-1-(4-fluorophenyl)-4a-(4-(trifluoromethyl)picolinoyl)-4,4a,5,6,7,8-hexahydro-1H-benzo[f]indazol-6-yl)-1-methyl-1H-1,2,3-triazole-4-sulfonamide]
≤ 100 | Cn1cc(S(=O)(=O)N(CCF)[C@H]2CCC3=Cc4c(cnn4-c4ccc(F)cc4)C[C@]3(C(=O)c3ncc(C(F)(F)F)s3)C2)cn1 [Example 396, N-(2-fluoroethyl)-N-((4aS,6S)-1-(4-fluorophenyl)-4a-(5-(trifluoromethyl)thiazole-2-carbonyl)-4,4a,5,6,7,8-hexahydro-1H-benzo[f]indazol-6-yl)-1-methyl-1H-pyrazole-4-sulfonamide]
≤ 100 | Cn1ccc(S(=O)(=O)N(CCF)[C@H]2CCC3=Cc4c(cnn4-c4ccc(F)cc4)C[C@]3(C(=O)c3cc(F)ccn3)C2)n1 [Example 397, N-(2-fluoroethyl)-N-((4aS,6S)-1-(4-fluorophenyl)-4a-(4-fluoropicolinoyl)-4,4a,5,6,7,8-hexahydro-1H-benzo[f]indazol-6-yl)-1-methyl-1H-pyrazole-3-sulfonamide]
